Experimental data published in patent publication US20190008790A1, “A METHOD FOR THE PREPARATION OF A DELIVERY DRUG DELIVERY SYSTEM AND A COMPOSITION THEREFOR” (Element Six (UK) Limited, priority 2015, published 2019).
≈ marks a conversion by molar mass, not a printed value.

Experiments:
Fusobacterium nucleatum = assay: IC50 test (half maximal inhibitory concentration) on gram-negative bacterium; assay type: cell-based; conditions: Triclosan ppm, percentage growth compared to positive control, 800 ppm stock
Description: The effectiveness of the active pharmaceutical ingredient may be measured by means of its “half maximal inhibitory concentration”, also known as the “IC50” value.
The IC50 of a substance is a measure of the effectiveness of that substance in inhibiting a specific biological or biochemical function. The IC50 indicates how much of a particular drug or other substance (inhibitor) is needed to inhibit a given biological process (or component of a process, i.e. an enzyme, cell, cell receptor or microorganism) by half. It is commonly used as a measure of antagonist drug potency in pharmacological research. The IC50 of a drug can be determined by constructing a dose-response curve and examining the effect of different concentrations of antagonist on reversing agonist activity. IC50 values can be calculated for a given antagonist by determining the concentration needed to inhibit half of the maximum biological response of the agonist.
A sample of the Triclosan™/nano-diamond powder produced according to Example 5 was dispersed into deionized water to form an 800 ppm Triclosan™ dispersion (Solution 1).
Triclosan™ was dissolved into an ethanol/water mixture (50/50 in volume) to form an 800 ppm Triclosan™ solution (Solution 2). An IC50 test was conducted with Solution 2 on gram-negative bacteria (Fusobacterium nucleatum). […]

[1] = system: Staphylococcus aureus subsp. aureus MRSA252; assay: Minimum Bactericidal Concentration Test (MBC), re-growth as percentage of positive control; assay type: cell-based; conditions: ciprofloxacin concentration, dilutions of 0.5 mg/ml stock, re-growth vs positive control, read-out: concentration at which activity against MRSA252 was maintained (MBC test)
Procedure: In this example, the efficacy of the product of Example 7 was tested against Comparative Example 7 using a Minimum Bactericidal Concentration Test (MBC) to compare the inhibitory.
A sample of the spray dried powder obtained from Example 7 was dispersed into deionised water to give a ciprofloxacin concentration of 0.5 mg/ml (“Solution A”). A dispersion having the same concentration of ciprofloxacin was prepared by dissolving ciprofloxacin into dimethyl sulfoxide (“Solution B”). A third sample (“Solution C”) consisting of a water saturated ciprofloxacin solution was prepared by dispersing powder obtained from Comparative Example 7.
All three solutions were diluted to various concentrations and were subject to Minimum Bactericidal Concentration Test (MBC) to compare the inhibitory activity via re-growth of Staphylococcus aureus subsp. aureus MRSA252 as percentage of positive control. […] Solution B (DMSO/ciprofloxacin organic solution) maintained activity against MRSA252 at 62.5 mg/L (see FIG. 4(b)).

Structure (SMILES) | IC50 (Fusobacterium nucleatum) | IC50 (Fusobacterium nucleatum; listed as Triclosan™ in a 50:50 by volume water/ethanol solution) | MBC [1]
Oc1cc(Cl)ccc1Oc1ccc(Cl)cc1Cl [Solution 2, 5-chloro-2-(2,4-dichloro-phenoxy)-phenol] | around 56 ppm | ~56 ppm | 
O=C(O)c1cn(C2CC2)c2cc(N3CCNCC3)c(F)cc2c1=O [Solution B, ciprofloxacin] |  |  | 62.5 µg/mL (≈ 189 µM)
